According to patent publication US8318712B2, “Concentrated liquid thyroid hormone composition” (Intervet International B.V., priority 2006, dated 2012):

Experiments:
[1] = as reported by Sigma-Aldrich; cited from earlier work
[2] = Solubility of levothyroxine sodium, effect of pH; type: physicochemical
From the text: To have an acceptable biological pH and to improve the solubility of levothyroxine, the pH preferably is at least about 8, or at least about 9.

[3] = Solubility in water, effect of levothyroxine sodium particle size; type: physicochemical; conditions: observed after 24 hours
Method: The solubilities of batches of levothyroxine sodium micronized (D99<13 μm) and not micronized (D99<125 μm) were investigated. Preparations with several amounts of active ingredient in a fixed volume of water were observed after 24 hours. In both cases, less than 100 μg of levothyroxine sodium was soluble per ml of water.

[4] = Solubility in aqueous HPBCD solution, effect of complexing agent and copolymers; type: physicochemical
Method: In an aqueous solution of 30% (w/w) HPBCD (Kleptose HPB, Roquette, France), 1000 μg/ml of levothyroxine sodium was dissolved. Applicants have observed that similar levothyroxine sodium solubilities may be achieved at lesser concentrations of HPBCD by adding a copolymer(s), such as, for example, sodium carboxymethyl cellulose (“CMC”), hydroxypropylmethylcellulose 4000 (“HPMC”), and/or povidone 12PF.
0.5% w/w of CCM and 15% (w/w) of HPBCD,
0.5% w/w of HPMC and 20% (w/w) of HPBCD, or
2% w/w of Povidone 12PF and 20% (w/w) of HPBCD.

[5] = Stability of levothyroxine sodium in aqueous HPBCD solution with or without stabilizers; type: physicochemical; conditions: experiments of Tables 2-4
From the text: The stability of levothyroxine sodium in an aqueous solution of HPBCD with or without stabilization was investigated.

[6] = Stability of levothyroxine sodium in aqueous HPBCD solutions with phosphate and carbonate buffers, sealed container; type: physicochemical; conditions: experiments of Table 9
From the text: Applicants investigated the stability of levothyroxine sodium in aqueous HPBCD solutions with phosphate and carbonate buffers in a sealed container.

In the case of CC(C)(N)CO [AMP, 2-amino-2-methyl-1-propanol], the “effective pH range” value [1] is listed as 8.7-10.4.

In the case of O=S(=O)(O)CCCCNC1CCCCC1 [CABS, 4-[cyclohexylamino]-1-butanesulfonic acid], the “effective pH range” value [1] is given as 10.0-11.4.

In the case of O=S(=O)(O)CCCNC1CCCCC1 [CAPS, N-cyclohexyl-3-aminopropanesulfonic acid], the “effective pH range” value [1] is listed as 9.7-11.1.

For O=S(=O)(O)CC(O)CNC1CCCCC1 (stereo not shown) [CAPSO, 3-[cyclohexylamino]-2-hydroxy-1-propanesulphonic acid], the “effective pH range” value [1] is given as 8.9-10.3.

In the case of NCC(=O)O [Glycine], the “effective pH range” value [1] is listed as 8.8-10.6 and the pKa2 [1] is listed as 9.78.

For CN [Methylamine], the “effective pH range” value [1] is given as 9.5-11.5.

In the case of NCCO [ethanolamine], the “effective pH range” value [1] is given as 6.0-12.0.

For N[C@@H](Cc1cc(I)c(Oc2cc(I)c(O)c(I)c2)c(I)c1)C(=O)[O-].[Na+] [levothyroxine sodium], the solubility ([2]; pH 7.3) was 28 µg/mL, the “solubility relative to pH 7.3” value ([2]; pH 9.4) was 7 times greater and the “solubility relative to pH 7.3” value ([2]; pH 10.45) was 11 times greater. The “levothyroxine sodium soluble per ml of water” value ([3]; micronized (D99<13 μm)) was “less than 100 μg per ml”, the “levothyroxine sodium soluble per ml of water” value ([3]; not micronized (D99<125 μm)) was “less than 100 μg per ml” and the levothyroxine sodium dissolved ([4]; aqueous solution of 30% (w/w) HPBCD) was 1000 µg/mL. The levothyroxine sodium dissolved ([4]; aqueous solution, 0.5% w/w of CCM and 15% (w/w) of HPBCD) was 1000 µg/mL, the levothyroxine sodium dissolved ([4]; aqueous solution, 0.5% w/w of HPMC and 20% (w/w) of HPBCD) was 1000 µg/mL and the levothyroxine sodium dissolved ([4]; aqueous solution, 2% w/w of Povidone 12PF and 20% (w/w) of HPBCD) was 1000 µg/mL. The “compatibility with HPBCD in aqueous solution” value [5] was “did not exhibit incompatibility” and the “compatibility with HPBCD in aqueous solution” value [6] was “did not exhibit incompatibility”.
